Molecular target: T1, NHE-1 (Homo sapiens, UniProt P19634)
T1 construct: endogenous in cells; host or cells: HT-29
Assay: Evaluation of NHE-1 Inhibition (pHi) in HT-29 cells
Assay type: cell-based
Settings: BCECF dye, 50% inhibition of the intracellular pH recovery, read-out: NHE1 HT29 pHi IC50
Procedure, shortened: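 Intracellular pH measured with BCECF in HT-29 cells after 24 h culture. Cells dye-loaded 30 min at 37° C, then acid-loaded with NH4Cl-containing choline buffer (pH 7.5) for 30 min at RT. Compounds added on an FDSS6000 fluorescence reader.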

T1 sequence (P19634 whole entry): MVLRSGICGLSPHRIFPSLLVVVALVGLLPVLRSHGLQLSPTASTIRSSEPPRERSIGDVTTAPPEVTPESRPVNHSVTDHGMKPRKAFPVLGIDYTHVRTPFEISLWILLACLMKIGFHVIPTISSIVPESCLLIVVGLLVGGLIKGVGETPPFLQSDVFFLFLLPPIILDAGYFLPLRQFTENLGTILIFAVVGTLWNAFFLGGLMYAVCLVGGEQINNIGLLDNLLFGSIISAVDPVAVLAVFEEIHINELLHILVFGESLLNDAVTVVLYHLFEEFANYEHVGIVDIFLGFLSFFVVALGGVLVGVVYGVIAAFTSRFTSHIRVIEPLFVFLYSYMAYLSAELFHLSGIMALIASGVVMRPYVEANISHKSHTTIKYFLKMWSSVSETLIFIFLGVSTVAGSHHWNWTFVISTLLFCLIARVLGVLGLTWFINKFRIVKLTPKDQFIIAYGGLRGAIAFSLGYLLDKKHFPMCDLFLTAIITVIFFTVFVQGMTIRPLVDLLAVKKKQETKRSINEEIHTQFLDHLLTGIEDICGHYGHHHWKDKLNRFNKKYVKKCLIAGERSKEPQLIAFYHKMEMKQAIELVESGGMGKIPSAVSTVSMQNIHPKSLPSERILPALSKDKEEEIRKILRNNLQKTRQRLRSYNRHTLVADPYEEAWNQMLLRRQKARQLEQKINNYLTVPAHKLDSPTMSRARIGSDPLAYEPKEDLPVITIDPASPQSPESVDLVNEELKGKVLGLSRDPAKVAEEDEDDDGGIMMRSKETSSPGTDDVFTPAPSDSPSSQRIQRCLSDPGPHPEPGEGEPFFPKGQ

| SMILES | IC50 [nM] |
| --- | --- |
| N=C(N)NC(=O)c1ccc(C2CCN(C(=O)c3ccncc3)CC2)c(C(F)(F)F)c1 [N-{4-[1-(Pyridine-4-carbonyl)-piperidin-4-yl]-3-trifluoromethyl-benzoyl}-guanidine] | 9 |
| N=C(N)NC(=O)c1ccc(C2CCN(C(=O)C3CCCN3)CC2)c(C(F)(F)F)c1 (stereo not shown) [N-{4-[1-(Pyrrolidine-2-carbonyl)-piperidin-4-yl]-3-trifluoromethyl-benzoyl}-guanidine] | 11 |
| N=C(N)NC(=O)c1ccc(C2CCN(C(=O)C3CCNC3)CC2)c(C(F)(F)F)c1 (stereo not shown) [N-{4-[1-(Pyrrolidine-3-carbonyl)-piperidin-4-yl]-3-trifluoromethyl-benzoyl}-guanidine] | 5 |
| N=C(N)NC(=O)c1ccc(C2CCN(C(=O)c3cccc4ncccc34)CC2)c(C(F)(F)F)c1 [N-{4-[1-(Quinoline-5-carbonyl)-piperidin-4-yl]-3-trifluoromethyl-benzoyl}-guanidine] | 46 |
| N=C(N)NC(=O)c1ccc(C2CCN(C(=O)C3CCOCC3)CC2)c(C(F)(F)F)c1 [N-{4-[1-(Tetrahydro-pyran-4-carbonyl)-piperidin-4-yl]-3-trifluoromethyl-benzoyl}-guanidine] | 61 |
| N=C(N)NC(=O)c1ccc(C2CCN(C(=O)c3ccc4cccnc4n3)CC2)c(C(F)(F)F)c1 [N-{4-[1-([1,8]Naphthyridine-2-carbonyl)-piperidin-4-yl]-3-trifluoromethyl-benzoyl}-guanidine] | 25 |
| Cc1cc(C2CCN(C(=O)c3cccc(C(F)(F)F)c3)CC2)c(S(C)(=O)=O)cc1C(=O)NC(=N)N [N-{5-methanesulfonyl-2-methyl-4-[1-(3-trifluoromethyl-benzoyl)-piperidin-4-yl]-benzoyl}-guanidine] | 51 |

Now from value to molecule:

| IC50 [nM] | SMILES |
| --- | --- |
| 19 | N=C(N)NC(=O)c1ccc(C2CCN(C(=O)c3ccncn3)CC2)c(C(F)(F)F)c1 [N-{4-[1-(Pyrimidine-4-carbonyl)-piperidin-4-yl]-3-trifluoromethyl-benzoyl}-guanidine] |
| 70 | N=C(N)NC(=O)c1ccc(C2CCN(C(=O)c3cnc4ccccc4c3)CC2)c(C(F)(F)F)c1 [N-{4-[1-(Quinoline-3-carbonyl)-piperidin-4-yl]-3-trifluoromethyl-benzoyl}-guanidine] |
| 64 | N=C(N)NC(=O)c1ccc(C2CCN(C(=O)c3ccc4ncccc4c3)CC2)c(C(F)(F)F)c1 [N-{4-[1-(Quinoline-6-carbonyl)-piperidin-4-yl]-3-trifluoromethyl-benzoyl}-guanidine] |
| 18 | N=C(N)NC(=O)c1ccc(C2CCN(C(=O)c3cscn3)CC2)c(C(F)(F)F)c1 [N-{4-[1-(Thiazole-4-carbonyl)-piperidin-4-yl]-3-trifluoromethyl-benzoyl}-guanidine] |
| 15 | COCC(=O)N1CCC(c2cc(C)c(C(=O)NC(=N)N)cc2S(C)(=O)=O)CC1 [N-{5-methanesulfonyl-4-[1-(2-methoxy-acetyl)-piperidin-4-yl]-2-methyl-benzoyl}-guanidine] |
| 16 | CCC(=O)N1CCC(c2cc(C)c(C(=O)NC(=N)N)cc2S(C)(=O)=O)CC1 [N-{5-methanesulfonyl-4-[1-propionyl-piperidin-4-yl]-2-methyl-benzoyl}-guanidine] |
